Experimental data reported in patent publication US20080167201A1, “Method For Synthesizing Derivative, Compound Library and Method For Constructing the Same, and Method For Screening” (priority 2004, published 2008).

How the values were obtained:
[1] = test system: EC17 cells derived from human esophageal cancer; test: cell migration inhibition, scratch assay with EC17 cells; assay type: cell-based; conditions: compound added immediately after scratching, 24 hr incubation, microscopic observation (FIG. 4)
Description: 500 μl of suspension of EC17 cells derived from human esophageal cancer (1.5×10^5 cells/ml; RPMI1640 medium (Nissui)) was added to each well of a 48-well plate and incubated at 37° C. for 24 hr. Then, the cells were linearly scraped off by scratching the center of the bottom of each well in a straight line with a micropipette tip. Then, the supernatant of the culture broth was immediately removed. The well was washed with 300 μl of PBS^− (8 g/l NaCl, 0.2 g/l KCl, 0.916 g/l Na2HPO4, 0.2 g/l KH2PO4) carefully not to scrape the remaining cells, and 500 μl of a RPMI1640 medium containing 1% serum (FBS; manufactured by Tissue Culture Biologicals) was gently added to the well. Further, migrastatin or oxidized migrastatin was added thereto and incubated at 37° C. for 24 hr. In addition, a culture broth to which migrastatin and oxidized migrastatin were not added was similarly incubated as a control. After the incubation, how much the straight line formed with the micropipette tip was filled with cells which had migrated from surroundings was confirmed by microscopic observation to evaluate migration of the cells.

[2] = test system: HT-29 cells derived from human colon cancer; test: ATP synthesis (ATP content by luciferase luciferin) in HT-29 cells; assay type: cell-based; conditions: 3 hr incubation, same concentration range as inhibits cell migration (FIG. 5)
Description: 1 ml of suspension of HT-29 cells derived from human colon cancer (4×10^5 cells/ml; RPMI1640 medium) was added to each well of a 24-well plate and incubated at 37° C. for 24 hr. Then, migrastatin or oxidized migrastatin was added thereto and incubated for 3 hr. In addition, a cultured broth to which migrastatin and oxidized migrastatin were not added was similarly incubated as a control. After the incubation, each well was washed twice with ice-cooled PBS^−. After an addition of 200 μl of 2% trichloroacetic acid, the plate was left at 4° C. for 30 min. The supernatant (160 μl) was neutralized with 36.8 μl of 0.5 N NaOH and used as a sample. This sample (160 μl) was added to 3 ml of PBS^− containing 4 mM MgCl2. Then, 40 μl of 4 mg/ml luciferase luciferin (Sigma) was added thereto and immediately the ATP content was measured with a single-photon monitor of a scintillation counter (LS-5000TD: BECKMAN COULTER). In addition, the ATP content under the conditions where the sample and luciferase luciferin were not added was measured as a blank value and was subtracted from each measurement value.

Compound | inhibition of migration of cells over the concentration range [1] | inhibition of ATP synthesis [2] | migration of cells ([1]; concentration of 30 μl/ml)
CO[C@H]1/C=C/CC/C=C/C(=O)O[C@H]([C@H](C)C(=O)CCCC2CC(=O)NC(=O)C2)/C(C)=C\[C@@H](C)C1=O [oxidized migrastatin, migrastatin oxide] | inhibition effect was observed at almost the same concentration range | did not inhibit ATP synthesis at all | –
CO[C@H]1/C=C/CC/C=C/C(=O)O[C@H]([C@H](C)C(=O)CCCC2CC(=O)NC(=O)C2)/C(C)=C\[C@@H](C)[C@@H]1O [migrastatin] | inhibited depending on the concentration of migrastatin | inhibited ATP synthesis | completely inhibited
